According to patent publication US20140275234A1, “COMPOSITIONS AND METHODS OF USING CRYSTALLINE FORMS OF WORTMANNIN ANALOGS” (ONCOTHYREON INC., priority 2010, published 2014):

Experiments:
[1] = Crystallization study in anisole, PX-866 quantified in supernatant; type: physicochemical
Method: 53 mg of PX-866 was placed in a 2 mL flat bottom vial and then added ˜940 μL (18 vol.) of anisole at RT. The supernatant was transferred to another vial and cooled down first to 4° C., and then to −20° C. (PX-866 quantified in aliquots of the supernatant at both temperatures). The resulted solids were dried under a stream of nitrogen and further dried under vacuum at RT for 16 hours, then dried under vacuum at 40° C. for 16 hours. PX-866 concentration in supernatant: RT: 9.9 mg/mL; 4° C.: 7.0 mg/mL; −20° C.: 6.2 mg/mL.

[2] = Solubility Screening Test I and II, HPLC of supernatant; type: physicochemical
Method: For each solvent, a 100 μL glass crimp-top vial was charged with ˜10 mg of PX-866 and sealed. By syringe, 2 parts of the appropriate solvent was added. If PX-866 dissolved completely, no further work was done. If necessary, more solvent was added to obtain a supernatant. The crimped vial was sonicated for 15 minutes and then centrifuged for 30 seconds. 1.0 μL of the supernatant was removed by syringe and added to a sealed HPLC vial containing 500 μL of acetonitrile. The same saturated solution was then heated for 30 minutes to a set point of 50° C., centrifuged again, and a second HPLC vial was prepared with 1.0 μL of the supernatant at 50° C. In the case of toluene, anisole, o-xylene, propyl acetate, 4-methyl-2-pentanone, and 1-pentanol the room temperature supernatant was transferred to a clean vial and cooled down to 0° C., and then −20° C. For each temperature, an HPLC vial was prepared with 1.0 μL of the supernatant. HPLC samples were run using the method described below and the 254 nm AUC was plotted on a calibration curve to obtain solubility data.
The samples that crystallized were cooled to 0° C. and subsequently −20° C. to acquire two additional temperature points. Solubility in the aliphatic solvents (propyl acetate, 4-methyl-2-pentanone, and 1-pentanol) decreased drastically with temperature from RT to −20° C.

[3] = as described in WO 2011/153488 and WO 2011/153495; cited from earlier work
pulmonary fibrosis = conditions: as described in WO 2010/118250; cited from earlier work
[4] = test system: phosphatidylinositol-3-kinase (PI-3K); conditions: cited from earlier work
[5] = Water slurry at ambient temperature; type: physicochemical; conditions: 0.5 g slurry in deionized water
Method: An initial solvent screen was performed on PX-866 to determine appropriate primary solvents and anti-solvents. Slurries and several precipitations were then performed utilizing several primary solvents and anti-solvents at 50 mg scale. […] The water slurry was then scaled up to 0.5 g and performed at ambient temperature. Since there was a concern for degradation taking place during the slurry at ambient temperature an additional slurry was performed on 0.5 g scale at 10° C. in an attempt to minimize any potential degradation.

C=CCN(/C=C1/C(=O)O[C@H](COC)[C@@]2(C)C1=C(O)C(=O)C1=C2[C@H](OC(C)=O)C[C@]2(C)C(=O)CC[C@@H]12)CC=C [PX-866, (4S,4aR,5R,6aS,9aR, Z)-1-((diallylamino)methylene)-11-hydroxy-4-(methoxymethyl)-4-a,6a-dimethyl-2,7,10-trioxo-1,2,4,4a,5,6,6a,7,8,9,9a,10-dodecahydroindeno[4,5-h]isochromen-5-yl acetate]
PX-866 concentration in supernatant ([1]; 4° C.): 7.0 mg/mL
PX-866 concentration in supernatant ([1]; RT): 9.9 mg/mL
PX-866 concentration in supernatant ([1]; −20° C.): 6.2 mg/mL
Solubility ([2]; 1,1,1,3,3,3,hexafluoro-2-propanol, RT): >500 @ RT mg/mL
Solubility ([2]; 1,1,1-trichloroethane, RT): >500 @ RT mg/mL
Solubility ([2]; 1,1,2,2-tetrachloroethane, RT): >500 @ RT mg/mL
Solubility ([2]; 1,4-dioxane, RT): >500 @ RT mg/mL
Solubility ([2]; 1-butanol, RT): >500 @ RT mg/mL
Solubility ([2]; 1-octanol, RT): 90.6 mg/mL
Solubility ([2]; 1-pentanol, 0° C.): 22.8 mg/mL
Solubility ([2]; 1-pentanol, RT): 84.4 mg/mL
Solubility ([2]; 1-pentanol, −20° C.): 2.4 mg/mL
Solubility ([2]; 2,2,2-trifluoroethanol, RT): >500 @ RT mg/mL
Solubility ([2]; 2,2,4-trimethylpentane, RT): 0.37 mg/mL
Solubility ([2]; 2-butanone, RT): >500 @ RT mg/mL
Solubility ([2]; 2-ethoxyethanol, RT): >500 @ RT mg/mL
Solubility ([2]; 4-methyl-2-pentanone, 0° C.): 33.4 mg/mL
Solubility ([2]; 4-methyl-2-pentanone, RT): 38.4 mg/mL
Solubility ([2]; 4-methyl-2-pentanone, −20° C.): 8.5 mg/mL
Solubility ([2]; N-methyl-2-pyrrolidone, RT): >500 @ RT mg/mL
Solubility ([2]; acetone, RT): >500 @ RT mg/mL
Solubility ([2]; anisole, 0° C., supernatant after crystallization): 7.0 mg/mL
Solubility ([2]; anisole, RT, supernatant after crystallization): 9.9 mg/mL
Solubility ([2]; anisole, −20° C., supernatant after crystallization): 6.2 mg/mL
Solubility ([2]; benzyl alcohol, RT): 498.0 mg/mL
Solubility ([2]; butyl acetate, RT): >500 @ RT mg/mL
Solubility ([2]; chlorobenzene, RT): 15.6 mg/mL
Solubility ([2]; cumene, RT): 4.9 mg/mL
Solubility ([2]; di(ethylene glycol), RT): 374.8 mg/mL
Solubility ([2]; dibutyl ether, RT): 3.1 mg/mL
Solubility ([2]; dichloromethane, RT): >500 @ RT mg/mL
Solubility ([2]; diethyl ether, RT): 9.5 mg/mL
Solubility ([2]; diethylamine, RT): >500 @ RT mg/mL
Solubility ([2]; diisopropyl ether, RT): 4.2 mg/mL
Solubility ([2]; dimethylformamide, RT): >500 @ RT mg/mL
Solubility ([2]; dimethylsulfoxide, RT): 252.5 mg/mL
Solubility ([2]; ethanol, RT): >500 @ RT mg/mL
Solubility ([2]; ethanolamine, RT): >500 @ RT mg/mL
Comments: PX-866 in supernatant ([2]; ethanolamine, RT, solution turned dark orange): no PX-866 detected in
Solubility ([2]; ethyl acetate, RT): >500 @ RT mg/mL
Solubility ([2]; ethyl formate, RT): >500 @ RT mg/mL
Solubility ([2]; ethylene glycol, RT): 135.9 mg/mL
Solubility ([2]; glycerol, RT): 12.6 mg/mL
Solubility ([2]; heptanes, RT): 0.88 mg/mL
Solubility ([2]; hexanes, RT): 0.31 mg/mL
Solubility ([2]; isopentanol, RT): 228.2 mg/mL
Solubility ([2]; isopropyl acetate, RT): >500 @ RT mg/mL
Solubility ([2]; isopropyl alcohol, RT): >500 @ RT mg/mL
Solubility ([2]; m-xylene, RT): 4.5 mg/mL
Solubility ([2]; methanol, RT): >500 @ RT mg/mL
Solubility ([2]; methyl acetate, RT): >500 @ RT mg/mL
Solubility ([2]; methyl t-butyl ether, RT): 41.0 mg/mL
Solubility ([2]; methyltetrahydrofuran, RT): >500 @ RT mg/mL
Solubility ([2]; nitromethane, RT): >500 @ RT mg/mL
Solubility ([2]; o-xylene, 0° C., supernatant after crystallization): 7.3 mg/mL
Solubility ([2]; o-xylene, RT, supernatant after crystallization): 5.5 mg/mL
Solubility ([2]; o-xylene, −20° C., supernatant after crystallization): 5.7 mg/mL
Solubility ([2]; p-xylene, RT): 1.0 mg/mL
Solubility ([2]; pentane, RT): 0.79 mg/mL
Solubility ([2]; perfluorohexane, RT): 0.28 mg/mL
Solubility ([2]; propyl acetate, 0° C.): 54.8 mg/mL
Solubility ([2]; propyl acetate, RT): 84.6 mg/mL
Solubility ([2]; propyl acetate, −20° C.): 18.6 mg/mL
Solubility ([2]; sec-butyl ether, RT): 1.3 mg/mL
Solubility ([2]; t-Butanol, 30° C.): 340.0 mg/mL
Solubility ([2]; tetrahydrofuran, RT): >500 @ RT mg/mL
Solubility ([2]; toluene, 0° C., supernatant after crystallization): 2.7 mg/mL
Solubility ([2]; toluene, RT, supernatant after crystallization): 5.2 mg/mL
Solubility ([2]; toluene, −20° C., supernatant after crystallization): 2.6 mg/mL
Solubility ([2]; water, RT): 3.5 mg/mL
Comments: decomposition observed by HPLC ([2]; water, RT, solubility sample): Slightly soluble, significant decomposition
efficacy in human trials [3]: has shown efficacy
efficacy in pulmonary fibrosis (pulmonary fibrosis): has shown efficacy
inhibition of PI-3K [4]: irreversibly inhibits
purity after water slurry [5]: notable decrease in PX-866 purity
